# Results taken from ChEMBL document CHEMBL5465560, “Selectivity Literature for EUbOPEN Chemogenomic Library” (2024).
# Tests used:
# [1] = molecular target: Receptor-type tyrosine-protein kinase FLT3 (Homo sapiens) (UniProt P36888); assay: Selectivity interaction (KinomeScan (DiscoverX)) EUB0000229b FLT3; conditions: at 10 µM
# [2] = molecular target: Calcium/calmodulin-dependent protein kinase type 1D (Homo sapiens) (UniProt Q8IU85); assay: Selectivity interaction (KinomeScan (DiscoverX)) EUB0001079a CAMK1D; conditions: at 1 µM
# [3] = molecular target: Mitogen-activated protein kinase kinase kinase kinase 4 (Homo sapiens, UniProt O95819); assay: Selectivity interaction (KinomeScan (DiscoverX)) EUB0001079a MAP4K4; conditions: at 1 µM
# Chain of Mitogen-activated protein kinase kinase kinase kinase 4 (O95819 2-1239 limits assumed): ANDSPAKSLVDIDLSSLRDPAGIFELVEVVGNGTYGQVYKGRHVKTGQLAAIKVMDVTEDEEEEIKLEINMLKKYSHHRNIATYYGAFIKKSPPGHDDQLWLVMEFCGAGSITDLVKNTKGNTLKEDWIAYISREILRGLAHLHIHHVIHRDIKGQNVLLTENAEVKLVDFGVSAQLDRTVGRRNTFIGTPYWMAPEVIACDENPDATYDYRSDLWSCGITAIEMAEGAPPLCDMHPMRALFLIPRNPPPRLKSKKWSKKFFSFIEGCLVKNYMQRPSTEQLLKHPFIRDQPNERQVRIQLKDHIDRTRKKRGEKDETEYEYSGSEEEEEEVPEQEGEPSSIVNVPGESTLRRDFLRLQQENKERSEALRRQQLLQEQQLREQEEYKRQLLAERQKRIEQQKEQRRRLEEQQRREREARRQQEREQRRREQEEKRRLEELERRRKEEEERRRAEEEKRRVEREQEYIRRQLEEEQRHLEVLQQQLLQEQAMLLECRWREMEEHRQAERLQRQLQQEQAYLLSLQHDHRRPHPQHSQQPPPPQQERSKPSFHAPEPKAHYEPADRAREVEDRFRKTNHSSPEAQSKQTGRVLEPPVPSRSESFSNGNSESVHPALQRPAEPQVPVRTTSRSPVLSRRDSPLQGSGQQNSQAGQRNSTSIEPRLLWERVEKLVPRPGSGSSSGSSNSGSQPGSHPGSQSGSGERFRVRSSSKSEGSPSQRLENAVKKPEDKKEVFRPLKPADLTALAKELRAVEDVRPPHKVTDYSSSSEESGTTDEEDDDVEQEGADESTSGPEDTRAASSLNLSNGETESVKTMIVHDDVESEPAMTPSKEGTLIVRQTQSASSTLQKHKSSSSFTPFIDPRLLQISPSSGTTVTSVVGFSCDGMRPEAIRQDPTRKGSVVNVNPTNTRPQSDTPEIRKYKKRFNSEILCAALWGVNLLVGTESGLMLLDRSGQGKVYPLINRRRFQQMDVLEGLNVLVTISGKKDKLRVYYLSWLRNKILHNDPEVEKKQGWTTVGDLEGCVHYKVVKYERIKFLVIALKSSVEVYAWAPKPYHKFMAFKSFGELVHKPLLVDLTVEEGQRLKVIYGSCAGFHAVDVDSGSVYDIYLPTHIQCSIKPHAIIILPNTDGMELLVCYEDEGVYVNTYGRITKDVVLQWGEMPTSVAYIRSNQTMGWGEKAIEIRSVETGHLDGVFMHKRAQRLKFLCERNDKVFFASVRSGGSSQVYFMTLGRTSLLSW
# [4] = molecular target: High affinity nerve growth factor receptor (Homo sapiens, UniProt P04629); assay: Selectivity interaction (KinomeScan (DiscoverX)) EUB0001079a NTRK1; conditions: at 1 µM
# [5] = molecular target: Ribosomal protein S6 kinase alpha-6 (Homo sapiens, UniProt Q9UK32); assay: Selectivity interaction (KinomeScan (DiscoverX)) EUB0001079a RPS6KA6; conditions: at 1 µM
# [6] = molecular target: CDK8/Cyclin C (Homo sapiens) (UniProt P49336+P24863); assay: Selectivity interaction (LanthaScreen Eu Kinase Binding Assay) EUB0001632a CDK8; assay type: protein-complex assay; conditions: at 10 µM
# [7] = molecular target: Non-receptor tyrosine-protein kinase TYK2 (Homo sapiens, UniProt P29597); assay: Selectivity interaction (KinomeScan (DiscoverX)) EUB0000666a TYK2; conditions: at 10 µM
# Chain of Non-receptor tyrosine-protein kinase TYK2 (P29597 whole entry): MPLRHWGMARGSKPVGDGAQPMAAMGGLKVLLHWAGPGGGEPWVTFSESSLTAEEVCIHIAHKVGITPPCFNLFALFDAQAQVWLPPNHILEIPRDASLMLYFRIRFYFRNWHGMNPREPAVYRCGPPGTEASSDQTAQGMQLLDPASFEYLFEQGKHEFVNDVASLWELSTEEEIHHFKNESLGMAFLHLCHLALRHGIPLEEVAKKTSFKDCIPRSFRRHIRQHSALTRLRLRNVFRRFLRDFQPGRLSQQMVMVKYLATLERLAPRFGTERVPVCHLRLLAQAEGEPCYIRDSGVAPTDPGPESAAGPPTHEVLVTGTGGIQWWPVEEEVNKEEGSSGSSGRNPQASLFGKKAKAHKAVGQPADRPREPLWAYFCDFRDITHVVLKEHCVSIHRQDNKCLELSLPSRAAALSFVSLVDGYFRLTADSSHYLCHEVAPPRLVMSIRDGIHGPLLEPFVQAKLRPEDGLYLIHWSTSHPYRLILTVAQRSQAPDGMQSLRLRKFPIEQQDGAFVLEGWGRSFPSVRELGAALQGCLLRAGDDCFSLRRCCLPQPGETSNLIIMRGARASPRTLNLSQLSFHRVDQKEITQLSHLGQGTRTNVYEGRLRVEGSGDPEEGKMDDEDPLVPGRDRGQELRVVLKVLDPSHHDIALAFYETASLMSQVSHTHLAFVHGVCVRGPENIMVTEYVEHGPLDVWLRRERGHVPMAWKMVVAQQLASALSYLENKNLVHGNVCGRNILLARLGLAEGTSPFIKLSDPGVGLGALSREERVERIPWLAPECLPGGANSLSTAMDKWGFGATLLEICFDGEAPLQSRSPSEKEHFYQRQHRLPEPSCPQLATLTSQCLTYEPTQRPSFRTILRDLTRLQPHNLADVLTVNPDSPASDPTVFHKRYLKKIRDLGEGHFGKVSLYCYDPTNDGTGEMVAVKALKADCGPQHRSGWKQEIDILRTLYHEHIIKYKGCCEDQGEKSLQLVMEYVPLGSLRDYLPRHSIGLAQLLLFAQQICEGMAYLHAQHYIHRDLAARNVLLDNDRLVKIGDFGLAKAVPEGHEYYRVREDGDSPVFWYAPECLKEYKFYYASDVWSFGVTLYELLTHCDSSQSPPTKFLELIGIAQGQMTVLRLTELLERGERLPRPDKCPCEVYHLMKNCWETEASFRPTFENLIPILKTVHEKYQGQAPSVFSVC
# [8] = test system: Tyrosine-protein kinase ABL1 (Homo sapiens), P00519 [H396P]; conditions: at 10 µM
# [9] = molecular target: Mitogen-activated protein kinase 3 (Homo sapiens, UniProt P27361); conditions: at 10 µM
# Chain of Mitogen-activated protein kinase 3 (P27361 whole entry): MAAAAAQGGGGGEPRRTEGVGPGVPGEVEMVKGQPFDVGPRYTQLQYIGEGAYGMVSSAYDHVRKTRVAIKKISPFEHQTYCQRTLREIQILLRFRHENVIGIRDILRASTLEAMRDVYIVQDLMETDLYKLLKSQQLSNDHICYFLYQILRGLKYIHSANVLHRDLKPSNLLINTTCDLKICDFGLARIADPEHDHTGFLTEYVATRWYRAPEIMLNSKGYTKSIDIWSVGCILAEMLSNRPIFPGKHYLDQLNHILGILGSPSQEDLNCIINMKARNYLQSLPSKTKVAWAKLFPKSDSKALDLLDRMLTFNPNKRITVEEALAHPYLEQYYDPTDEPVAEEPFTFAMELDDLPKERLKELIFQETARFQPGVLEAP
# [10] = molecular target: Glycogen synthase kinase-3 beta (Homo sapiens, UniProt P49841); assay: Selectivity interaction (Upstate Kinase Profiler service (Millipore)) EUB0000056c GSK3B; conditions: at 1 µM
# [11] = molecular target: Interleukin-1 receptor-associated kinase 1 (Homo sapiens) (UniProt P51617); assay: Selectivity interaction (ProQinase) EUB0000171b IRAK1
# Chain of Interleukin-1 receptor-associated kinase 1 (Homo sapiens) (P51617 whole entry, looked up): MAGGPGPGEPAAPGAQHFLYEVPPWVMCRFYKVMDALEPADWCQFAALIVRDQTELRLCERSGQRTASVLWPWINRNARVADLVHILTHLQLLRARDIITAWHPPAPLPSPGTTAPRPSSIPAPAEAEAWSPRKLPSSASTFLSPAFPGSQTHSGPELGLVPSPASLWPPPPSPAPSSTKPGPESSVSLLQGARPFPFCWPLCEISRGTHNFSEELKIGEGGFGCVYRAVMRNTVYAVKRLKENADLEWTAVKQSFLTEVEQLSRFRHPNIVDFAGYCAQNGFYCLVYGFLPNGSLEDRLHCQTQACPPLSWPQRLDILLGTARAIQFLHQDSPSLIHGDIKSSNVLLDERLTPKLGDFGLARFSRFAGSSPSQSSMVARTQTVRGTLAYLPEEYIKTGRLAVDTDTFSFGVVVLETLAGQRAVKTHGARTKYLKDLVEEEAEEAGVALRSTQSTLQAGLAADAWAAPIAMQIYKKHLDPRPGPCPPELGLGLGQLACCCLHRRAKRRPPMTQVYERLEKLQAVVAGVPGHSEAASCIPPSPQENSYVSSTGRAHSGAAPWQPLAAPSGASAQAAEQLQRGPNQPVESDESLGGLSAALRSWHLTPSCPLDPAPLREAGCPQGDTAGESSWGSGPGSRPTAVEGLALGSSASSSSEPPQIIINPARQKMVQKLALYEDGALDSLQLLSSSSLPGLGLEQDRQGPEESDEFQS
# [12] = molecular target: Potassium voltage-gated channel subfamily A member 5 (Homo sapiens) (UniProt P22460); assay: Selectivity interaction (Panel of kinases, GPCRs, ion channels and transporters (enzymatic assay)) EUB0000223bCl KCNA5
# [13] = molecular target: Macrophage colony-stimulating factor 1 receptor (Homo sapiens) (UniProt P07333); assay: Selectivity interaction (SelectScreen profiling (Invitrogen)) EUB0000607a CSF1R; conditions: at 2 µM
# [14] = molecular target: cAMP-dependent protein kinase catalytic subunit alpha (Homo sapiens, UniProt P17612); assay: Selectivity interaction (SelectScreen profiling (Invitrogen)) EUB0000607a PRKACA; conditions: at 2 µM
# [15] = molecular target: Ribosomal protein S6 kinase alpha-1 (Homo sapiens, UniProt Q15418); assay: Selectivity interaction (SelectScreen profiling (Invitrogen)) EUB0000607a RPS6KA1; conditions: at 2 µM
# [16] = molecular target: T1, Megakaryocyte-associated tyrosine-protein kinase (Homo sapiens) (UniProt P42679); assay: Selectivity interaction (KinomeScan (DiscoverX)) EUB0000618a MATK; conditions: at 10 µM
# T1 sequence (whole entry): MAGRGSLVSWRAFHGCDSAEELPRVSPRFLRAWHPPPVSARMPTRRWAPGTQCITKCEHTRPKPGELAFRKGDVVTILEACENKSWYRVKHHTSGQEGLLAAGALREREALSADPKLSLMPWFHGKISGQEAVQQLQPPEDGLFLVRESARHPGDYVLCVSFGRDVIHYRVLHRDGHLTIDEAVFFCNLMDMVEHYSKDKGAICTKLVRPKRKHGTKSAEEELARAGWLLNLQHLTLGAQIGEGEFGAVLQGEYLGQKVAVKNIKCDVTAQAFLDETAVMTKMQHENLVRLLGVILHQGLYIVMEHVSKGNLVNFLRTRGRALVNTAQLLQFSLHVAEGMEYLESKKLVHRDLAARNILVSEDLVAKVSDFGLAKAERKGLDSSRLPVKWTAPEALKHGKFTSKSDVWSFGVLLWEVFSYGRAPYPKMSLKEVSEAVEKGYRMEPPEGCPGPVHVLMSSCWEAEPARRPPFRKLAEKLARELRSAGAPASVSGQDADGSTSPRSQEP
# [17] = molecular target: Ribosomal protein S6 kinase alpha-2 (Homo sapiens) (UniProt Q15349); assay: Selectivity interaction (KinomeScan (DiscoverX)) EUB0000618a RPS6KA2; conditions: at 10 µM
# [18] = molecular target: Protein kinase C delta type (Homo sapiens) (UniProt Q05655); assay: Selectivity interaction (ActivX KiNativ screen (kinase selectivity in THP-1 cell lysates)) EUB0000639a PRKCD; assay type: subcellular; conditions: lysate
# Chain of Protein kinase C delta type (Homo sapiens) (Q05655 whole entry, looked up): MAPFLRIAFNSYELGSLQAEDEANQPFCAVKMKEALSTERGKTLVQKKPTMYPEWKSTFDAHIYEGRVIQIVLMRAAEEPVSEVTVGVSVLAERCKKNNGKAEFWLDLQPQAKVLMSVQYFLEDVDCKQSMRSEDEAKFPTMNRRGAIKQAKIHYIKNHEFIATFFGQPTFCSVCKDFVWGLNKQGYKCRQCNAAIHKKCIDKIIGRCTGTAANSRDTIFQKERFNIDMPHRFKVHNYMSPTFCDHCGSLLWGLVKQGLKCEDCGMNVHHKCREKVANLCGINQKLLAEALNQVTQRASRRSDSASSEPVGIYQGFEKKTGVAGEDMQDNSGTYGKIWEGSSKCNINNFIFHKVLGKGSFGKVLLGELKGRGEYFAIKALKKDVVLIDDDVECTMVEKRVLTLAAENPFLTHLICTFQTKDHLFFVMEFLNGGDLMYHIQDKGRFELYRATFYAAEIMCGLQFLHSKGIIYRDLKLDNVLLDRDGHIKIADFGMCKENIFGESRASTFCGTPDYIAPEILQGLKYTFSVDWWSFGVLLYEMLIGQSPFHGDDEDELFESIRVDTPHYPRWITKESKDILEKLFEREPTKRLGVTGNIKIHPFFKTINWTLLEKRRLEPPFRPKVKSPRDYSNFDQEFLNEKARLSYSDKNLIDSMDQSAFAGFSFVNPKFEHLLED
# [19] = molecular target: MAP/microtubule affinity-regulating kinase 3 (Homo sapiens) (UniProt P27448); assay: Selectivity interaction (KinomeScan (DiscoverX)) EUB0000655a MARK3; conditions: at 10 µM
# [20] = molecular target: 5'-AMP-activated protein kinase catalytic subunit alpha-1 (Homo sapiens, UniProt Q13131); assay: Selectivity interaction (KinomeScan (DiscoverX)) EUB0000655a PRKAA1; conditions: at 10 µM
# [21] = molecular target: Phosphatidylinositol 4-kinase beta (Homo sapiens, UniProt Q9UBF8); assay: Selectivity interaction (KinomeScan (DiscoverX)) EUB0000092b PI4KB; conditions: at 10 µM
# Chain of Phosphatidylinositol 4-kinase beta (Q9UBF8 2-816 limits assumed): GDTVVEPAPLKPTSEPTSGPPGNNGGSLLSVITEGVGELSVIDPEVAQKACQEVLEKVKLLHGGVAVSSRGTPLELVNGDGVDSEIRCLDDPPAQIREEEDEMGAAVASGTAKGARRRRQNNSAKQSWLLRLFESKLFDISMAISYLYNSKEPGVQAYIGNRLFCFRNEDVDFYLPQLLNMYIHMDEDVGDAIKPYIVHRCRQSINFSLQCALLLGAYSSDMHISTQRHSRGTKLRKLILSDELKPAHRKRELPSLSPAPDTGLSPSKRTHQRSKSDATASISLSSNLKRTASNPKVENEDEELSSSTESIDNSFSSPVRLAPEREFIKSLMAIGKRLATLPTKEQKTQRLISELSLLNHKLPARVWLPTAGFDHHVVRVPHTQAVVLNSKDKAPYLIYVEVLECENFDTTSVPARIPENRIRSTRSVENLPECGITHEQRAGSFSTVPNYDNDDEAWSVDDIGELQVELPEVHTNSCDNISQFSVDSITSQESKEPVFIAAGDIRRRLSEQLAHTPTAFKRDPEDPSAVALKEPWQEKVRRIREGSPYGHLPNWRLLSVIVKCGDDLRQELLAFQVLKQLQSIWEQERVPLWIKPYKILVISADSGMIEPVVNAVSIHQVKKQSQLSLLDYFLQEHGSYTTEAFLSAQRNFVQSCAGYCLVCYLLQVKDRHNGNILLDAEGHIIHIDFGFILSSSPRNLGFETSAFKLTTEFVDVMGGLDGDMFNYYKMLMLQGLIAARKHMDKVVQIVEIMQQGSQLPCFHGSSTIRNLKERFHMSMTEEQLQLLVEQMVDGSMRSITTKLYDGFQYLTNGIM
# [22] = molecular target: T2, Protein kinase C epsilon type (Homo sapiens) (UniProt Q02156); assay: Selectivity interaction (Ambit KINOMEscan and KiNATiv profiling in Jurkat cells) EUB0000090b PRKCE; assay type: cell-based; conditions: at 1 µM
# T2 sequence (whole entry): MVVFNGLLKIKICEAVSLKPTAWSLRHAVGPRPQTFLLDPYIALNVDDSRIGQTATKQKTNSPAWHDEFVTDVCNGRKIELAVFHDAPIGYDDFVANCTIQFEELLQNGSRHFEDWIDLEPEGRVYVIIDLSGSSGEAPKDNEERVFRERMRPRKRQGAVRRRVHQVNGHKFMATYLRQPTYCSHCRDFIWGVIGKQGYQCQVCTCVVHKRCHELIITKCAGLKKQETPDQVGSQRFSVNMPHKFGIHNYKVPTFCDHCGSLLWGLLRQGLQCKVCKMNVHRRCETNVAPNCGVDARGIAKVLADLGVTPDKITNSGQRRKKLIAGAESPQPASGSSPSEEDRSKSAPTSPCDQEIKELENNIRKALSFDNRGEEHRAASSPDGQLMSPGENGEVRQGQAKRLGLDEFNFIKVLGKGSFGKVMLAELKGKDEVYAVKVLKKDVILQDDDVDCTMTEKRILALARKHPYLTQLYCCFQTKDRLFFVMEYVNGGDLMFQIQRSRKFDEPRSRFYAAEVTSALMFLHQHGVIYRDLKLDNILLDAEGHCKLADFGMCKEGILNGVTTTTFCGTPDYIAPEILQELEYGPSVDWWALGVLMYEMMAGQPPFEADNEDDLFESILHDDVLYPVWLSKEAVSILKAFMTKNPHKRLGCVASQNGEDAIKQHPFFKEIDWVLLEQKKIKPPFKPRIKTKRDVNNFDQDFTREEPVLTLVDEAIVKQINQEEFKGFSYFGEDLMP
compound,measurement,setting,value
COc1cc(N(C)c2ccnc3ccc(C(F)(F)F)cc23)cc(OC)c1OC,% binding,[1],85%
Nc1cnc(N2CCc3cc(S(=O)(=O)Nc4c(F)cc(Cl)cc4F)cc(N4CCCC4=O)c32)nc1 [TP-020n],% of control,[2],97%
same,% of control,[3],61%
same,% of control,[4],100%
same,% of control,[5],100%
Cn1cc(-n2cnc3c(NCc4nc5cc(Cl)c(Cl)cc5[nH]4)nc(N4CCOCC4)nc32)cn1,% of inhibition,[6],17.1%
O=C(NOC[C@H](O)CO)c1ccc(F)c(F)c1Nc1ccc(I)cc1F,% of control,[7],100%
Cc1cc([C@@H](C)Nc2ccccc2C(=O)O)c2nc(N3CCOCC3)cc(=O)n2c1 [AZD-6482],% of control,[8],61%
same,% of control,[9],95%
Cc1ccc(-c2ccc3c(ccc4sc5c(c43)NC[C@@H](C)NC5=O)n2)cn1,% of inhibition,[10],11%
C=CC(=O)Nc1cccc(C(=O)Nc2ccc(Nc3cc(-c4[nH]c(SC)nc4C)ccn3)cc2)c1,% of control,[11]; at 1 µM,50%
same,% of control,[11]; at 5 µM,11%
COc1cc(C(=O)N2CC[C@@H](O)[C@@H](N)C2)cc2nc(-c3cc4ccccc4n3CC3CC3)n(C)c12,pXC50,[12],< 4.8 M
CNC(=O)Nc1ccc(-c2nc(N3CC4CCC(C3)O4)c3cnn(C4CCC5(CC4)OCCO5)c3n2)cc1,% of inhibition,[13],7%
same,% of inhibition,[14],-3%
same,% of inhibition,[15],4%
O[C@H]1CC[C@H](Nc2ncc3nc(Nc4c(F)cc(F)cc4F)n([C@H]4CCOC4)c3n2)CC1,% of control,[16],95%
same,% of control,[17],91%
CC[C@@H]1[C@H](F)C(=O)N[C@@H]1COc1nccc2cc(C(N)=O)c(OC)cc12 [ZIMLOVISERTIB],% of inhibition,[18]; at 0.01 µM,-1%
same,% of inhibition,[18]; at 0.04 µM,-2%
same,% of inhibition,[18]; at 0.2 µM,1.3%
same,% of inhibition,[18]; at 1 µM,7.2%
same,% of inhibition,[18]; at 5 µM,-13.1%
CN(C)CCOc1ccc(-c2nc(-c3ccncc3)c(-c3ccc4c(c3)CC/C4=N\O)[nH]2)cc1,% of control,[19],95%
same,% of control,[20],100%
CCC(=O)N1CCN(c2ccc(-n3c(=O)ccc4cnc5ccc(-c6cnc7ccccc7c6)cc5c43)cc2C(F)(F)F)CC1,% of control,[21],96%
CN(C)C/C=C/C(=O)Nc1ccc(C(=O)N2CCCC(Nc3ncc(Cl)c(-c4c[nH]c5ccccc45)n3)C2)cc1 (configuration not stated),% of control,[22],99%
